Source: US20130296311A1, “INHIBITORS OF HCV NS5A” (PRESIDIO PHARMACEUTICALS, INC., priority 2010, published 2013)

These compounds were tested on HCV 1b_Huh-Luc/Neo-ET cell line persistently expressing a bicistronic genotype 1b replicon in Huh 7 cells (assay: HCV replicon assay (luciferase readout, 72 h)). Conditions: Hepatitis C virus, Huh-7, 72 h, read-out: Inhibition of HCV genotype 1b.
Type: cell-based, HCV genotype 1b
How it was run: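 EC50 values come from a four-parameter fit of luciferase signal as % of untreated control, repeated across several determinations. The signal is from the HCV 1b_Huh-Luc/Neo-ET replicon line, dosed in triplicate one day post-plating and incubated 72 h before Bright-Glo readout.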

SMILES | EC50
COC(=O)N[C@H](C(=O)N1CCC[C@H]1c1ncc(C#Cc2ccc(-c3ccc4nc([C@@H]5CCCN5C(=O)[C@@H](NC(=O)OC)C(C)C)[nH]c4c3)nc2)[nH]1)C(C)C [Compound 1086] | < 1 nM
COC(=O)N[C@H](C(=O)N1CCC[C@H]1c1ncc(-c2ccc(C#Cc3ccc4nc([C@@H]5CCCN5C(=O)[C@@H](NC(=O)OC)C5CCOCC5)[nH]c4c3)cc2F)[nH]1)C1CCOCC1 [Compound 1070] | < 1 nM
COC(=O)N[C@H](C(=O)N1CCC[C@H]1c1nc2ccc3cc(C#Cc4ccc(-c5cnc([C@@H]6CCCN6C(=O)[C@H](NC(=O)OC)c6ccccc6)[nH]5)cc4)ccc3c2[nH]1)C(C)C [Compound 1093] | < 1 nM
COC(=O)N[C@H](C(=O)N1CCOC[C@H]1c1ncc(-c2ccc(C#Cc3ccc4nc([C@@H]5CCCN5C(=O)[C@@H](NC(=O)OC)C(C)C)[nH]c4c3)cc2)[nH]1)C(C)C [Compound 1027] | < 1 nM
COC(=O)N[C@@H](C(=O)N1CCC[C@H]1c1ncc(-c2ccc(C#Cc3ccc(C(=O)NC[C@@H]4CCCN4C(=O)[C@H](NC(=O)N4CCOCC4)c4ccccc4)cc3)cc2)[nH]1)c1ccccc1 [Compound 235] | < 1 nM
COC(=O)N[C@H](C(=O)N1CCC[C@H]1c1ncc(-c2ccc(C#Cc3ccc(-c4cnc([C@@H]5CCCN5C(=O)[C@H](C(C)C)N5CCOC5=O)[nH]4)cc3)cc2)[nH]1)C(C)C [Compound 996] | < 1 nM
COC(=O)N[C@H](C(=O)N1CCC[C@H]1c1nc2c([nH]1)-c1ccc(C#Cc3ccc4nc([C@@H]5CCCN5C(=O)[C@H](NC(=O)OC5CCOCC5)c5ccccc5)[nH]c4c3)cc1CC2)C(C)C [Compound 1104] | < 1 nM
O=C(N[C@@H](C(=O)N1CCC[C@H]1c1ncc(-c2ccc(C#Cc3ccc(-c4cnc([C@@H]5CCCN5C(=O)[C@H](NC(=O)N5CC[C@H](O)C5)c5ccccc5)[nH]4)cc3)cc2)[nH]1)c1ccccc1)N1CC[C@H](O)C1 [Compound 245] | < 1 nM
C[C@@H](c1ncc(-c2ccc(C#Cc3ccc(-c4cnc([C@@H]5CCCN5C(=O)[C@H](NC(=O)C5CC5)c5ccccc5)[nH]4)cc3)cc2)[nH]1)N(C)C(=O)[C@H](NC(=O)C1CC1)c1ccccc1 [Compound 278] | < 1 nM
COC(=O)N[C@H](C(=O)N[C@@H](C)c1ncc(-c2ccc(C#Cc3ccc(-c4cnc([C@@H]5CCCN5C(=O)[C@@H](NC(=O)OC)[C@@H](C)OC)[nH]4)cc3)cc2)[nH]1)[C@@H](C)OC [Compound 289] | < 1 nM
COC(=O)N[C@H](C(=O)N1CCC[C@H]1c1ncc(-c2ccc(C#Cc3ccc(-c4cnc([C@@H]5CCCN5C(=O)[C@@H](NC(=O)OC)[C@@H](C)OC)[nH]4)cc3)cc2)[nH]1)[C@@H](C)OC [Compound 284] | < 1 nM
COC(=O)N[C@@H](CC(=O)O)C(=O)N1CCC[C@H]1c1ncc(-c2ccc(C#Cc3ccc4nc([C@@H]5CCCN5C(=O)[C@H](CC(=O)O)NC(=O)OC)[nH]c4c3)cc2)[nH]1 [Compound 1061] | 10 to 999 nM
COC(=O)N[C@H](C(=O)N1CCC[C@H]1c1ncc(-c2ccc(C#Cc3ccc(-c4cnc([C@@H]5CCCN5C(=O)[C@H](NC(=O)N5CC[C@@H](O)C5)c5ccccc5)[nH]4)cc3)cc2)[nH]1)C(C)C [Compound 975] | < 1 nM
COC(=O)N[C@H](C(=O)N[C@@H](C)c1nc2ccc(C#Cc3ccc(-c4cnc([C@@H]5CCCN5C(=O)[C@@H](NC(=O)OC)C(C)C)[nH]4)cc3)cc2[nH]1)C(C)C [Compound 867] | < 1 nM
COC(=O)N[C@@H](C(=O)N1CCC[C@H]1c1ncc(C#Cc2ccc(-c3ccc(-c4cnc([C@@H]5CCCN5C(=O)[C@@H](c5ccccc5)N5CCCC5)[nH]4)cc3)cc2)[nH]1)c1ccccc1 [Compound 759] | < 1 nM

Same assay, conditions: Hepatitis C virus, Huh-7, read-out: Inhibition of HCV genotype 1b

SMILES | EC50
COC(=O)N[C@H](C(=O)N1CCC[C@H]1c1ncc(-c2ccc(C#Cc3ccc(-c4cnc([C@@H]5CCCN5C(=O)[C@H](NC(=O)OC)c5ccccc5)[nH]4)cc3)cc2)[nH]1)[C@@H](C)OC [Compound 1210] | < 1 nM
[2H]C([2H])([2H])C([2H])(C([2H])([2H])[2H])[C@@]([2H])(NC(=O)OC)C(=O)N1CCC[C@H]1c1nc2ccc(C#Cc3ccc4c(ccc5nc([C@@H]6CCCN6C(=O)[C@@H](NC(=O)OC)C(C)C)[nH]c54)c3)cc2[nH]1 [Compound 1278] | < 1 nM
C=CC[C@H](NC(=O)OC)C(=O)N1CCC[C@H]1c1nc2ccc(C#Cc3ccc4c(ccc5nc([C@@H]6CCCN6C(=O)[C@@H](NC(=O)OC)C(C)C)[nH]c54)c3)cc2[nH]1 [Compound 1277] | < 1 nM
